Non-standard residues stand in square brackets, D forms with d. No end group written: not given here. Aib = CC(C)(N)C(=O)O
Key:
BHK(SR-BI) cells = experiment: DiI uptake from PALM or HDL by BHK(SR-BI) cells, SR-BI un-induced or induced; type: cell-based, hamster; settings: for Increase Over Un-induced: DiI uptake, induced vs un-induced cells; for Induced DiI Uptake: SR-BI induced (10 nM mifepristone) BHK(SR-BI) cells; for Induced DiI Uptake / Un-induced DiI Uptake: 4 hours, mean ± SEM, n = 4; for Un-induced DiI Uptake: un-induced BHK(SR-BI) cells, relative to protein (HDL) or peptide (PALM) concentration
Experimental: SR-BI interaction studies are done with BHK(SR-BI) cells obtained from the NIH. The cells were stably transfected with an inducible human SR-BI gene by means of the GeneSwitch™ System (Invitrogen). The cells were plated (96-well plate) (8000 cells/well) in growth medium (Dulbeco's modified Eagle medium containing 10% fetal bovine serum) containing 200 ug/ml each of zeocin and hygromycin. After 24 hours incubation, the growth medium was removed and replaced with 0.2% bovine serum albumin in Dulbeco's modified Eagle medium. The medium of cells to be induced for SR-BI expression also contained 10 nM mifepristone, added from a DMSO stock solution. DMSO alone was added to the medium of uninduced cells. The induction medium was removed after 24 hours and replaced with medium containing DiI-labeled PALM (32 μg peptide/ml) or DiI-labeled HDL (19 μg protein/ml) (Kalen Biomedical, Montgomery Village, Md.). The test media were prepared by diluting an aliquot of Di-I-labeled PALM (Example 5) or the DiI-labeled HDL in 0.2% bovine serum albumin in Dulbeco's modified Eagle medium. The solutions were passed through 0.2 μm pore size, polyethersulfone, sterilization filters before use. The cells were incubated for 4 hours. Next, the cells were washed 3 times with 0.1% albumin in Dulbeco's phosphate buffered saline (with calcium and magnesium). The last wash was replaced with 200 ul/well of t-butanol/water (95%/5%). The covered plate was left to stand at ROOM TEMPERATURE for 30 min with occasional shaking. The fluorescence in each well was detected at 520 nm excitation and 580 nm emission with a 550 nm cutoff filter on a Molecular Dynamics Gemini fluorescence plate reader (FIG. 9).

[1] = Stability of peptide/phospholipid complexes by visual inspection; type: physicochemical; settings: SM, PC/SM 70/30
Experimental: Separate stock solutions of peptide and phospholipids were prepared in a solvent mixture composed of 80% tert-butyl alcohol (TBA) and 20% water to obtain separate solutions of 10 mM peptide, 20 mM 1,2-dioleoyl-sn-glycero-3-phosphocholine (DOPC) or 20 mM 1-palmitoyl-2-oleoyl-phosphatidylcholine (POPC) and 20 mM egg SM. Aliquots of stock solution were combined to obtain a final solution containing 10 mole equivalents of peptide, 42 mole equivalents of phosphatidylcholine and 18 mole equivalents of SM. The solutions were combined in a 1.5 ml glass vial, frozen (−70° C.), and lyophilized at −5 to −10° C. overnight. The resultant lyophilized cakes were rehydrated by addition of Dulbeco's phosphate buffered saline followed by gentle swirling of the contents. Formation of PALM was completed by incubating the PALM solution at 50° C. for 10 minutes. […] The qualities of the PALM preparations were evident in their appearance. A visually clear preparation indicated any nanoparticles that had formed were less than approximately 20 nm diameter.

Substance	Increase Over Un-induced (BHK(SR-BI) cells)	Induced DiI Uptake (BHK(SR-BI) cells)	Un-induced DiI Uptake (BHK(SR-BI) cells)	Stability by visual inspection (appearance) ([1]; DOPC, C16PTX/PL mole ratio 0)	Stability by visual inspection (appearance) ([1]; DOPC, C16PTX/PL mole ratio 0.1)	Stability by visual inspection (appearance) ([1]; POPC, C16PTX/PL mole ratio 0)	Stability by visual inspection (appearance) ([1]; POPC, C16PTX/PL mole ratio 0.1)
DVFQ{AIB}LKELLNQLLEKFKQV (DVFQ[Aib]LKELLNQLLEKFKQV) [SEQ ID NO: 5]	73%	0.93 ± 0.03 pmol/µg/mL	0.54 ± 0.03 pmol/µg/mL	–	–	–	–
DVFQKL{AIB}ELFNQLLEKWKQV (DVFQKL[Aib]ELFNQLLEKWKQV) [SEQ ID NO: 25]	245%	0.83 ± 0.02 pmol/µg/mL	0.24 ± 0.01 pmol/µg/mL	Clear	Clear	Clear	Clear
DVFQKL{AIB}ELFNQL{AIB}EKWKQV (DVFQKL[Aib]ELFNQL[Aib]EKWKQV) [SEQ ID NO: 35]	264%	1.26 ± 0.06 pmol/µg/mL	0.35 ± 0.01 pmol/µg/mL	–	–	–	–
DV{AIB}QKLFELFNQLLEKWKQV (DV[Aib]QKLFELFNQLLEKWKQV) [SEQ ID NO: 27]	90%	0.66 ± 0.02 pmol/µg/mL	0.34 ± 0.01 pmol/µg/mL	Turbid	–	Clear	Turbid
DVFQKLVELFNQLLEKWKQV [SEQ ID NO: 26]	65%	0.81 ± 0.04 pmol/µg/mL	0.49 ± 0.04 pmol/µg/mL	–	–	Clear	Turbid
DVFQ{AIB}LKELFNQLLEKWKQV (DVFQ[Aib]LKELFNQLLEKWKQV) [SEQ ID NO: 3]	88%	0.29 ± 0.03 pmol/µg/mL	0.16 ± 0.01 pmol/µg/mL	–	–	–	–
DV{AIB}QKFLELFNQLLEKWKQV (DV[Aib]QKFLELFNQLLEKWKQV) [SEQ ID NO: 32]	221%	0.90 ± 0.03 pmol/µg/mL	0.28 ± 0.02 pmol/µg/mL	Turbid	Turbid	Clear	Turbid
